Assay results reported in patent publication US8440841B2, “5-pyrrolidinylsulfonyl isatin derivatives” (Universitätsklinikum Münster, priority 2005, dated 2013).

What was measured:
[1] = biological target: T1, recombinant human caspase 3 (Homo sapiens, UniProt P42574); test: Caspase inhibition assay, standard fluorometric assay with Ac-DEVD-AMC; type: biochemical; details: Ki(app) = IC50/(1 + [S]/KM), [S] = 10 μM Ac-DEVD-AMC, 37° C., pH 7.5
T1 construct: Recombinant full-length human caspase-3 was purified as described previously [21b]; made in house
T1 sequence (P42574 29-175 limits assumed): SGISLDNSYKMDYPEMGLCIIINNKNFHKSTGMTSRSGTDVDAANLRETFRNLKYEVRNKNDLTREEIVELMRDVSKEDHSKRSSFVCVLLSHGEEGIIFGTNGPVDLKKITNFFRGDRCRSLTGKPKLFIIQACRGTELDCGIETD
T1 sequence (P42574 176-277 limits assumed): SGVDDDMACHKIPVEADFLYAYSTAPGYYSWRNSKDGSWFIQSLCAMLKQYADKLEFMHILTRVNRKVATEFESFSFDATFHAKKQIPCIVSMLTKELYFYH
Method: The inhibition of recombinant human caspase 3 by twentythree isatin sulfonamides (twenty
Recombinant full-length human caspase-3 was purified as described previously [21b]. […] Enzyme assays were performed in a 200 μl volume at 37° C. in reaction buffer containing 0.1% CHAPS, 50 mM KCl, 5 mM β-mercaptoethanol, 25 mM HEPES (pH 7.5) and nonradioactive isatins in DMSO each in single doses (end concentrations 500 μM, 50 μM, 5 μM, 500 nM, 50 nM, 5 nM, 500 pM, 50 pM or 5 pM). […] After 10 min incubation time Ac-DEVD-AMC (end concentration 10 μM) was added and reacted for further 10 min. […] The IC50-values were determined by non-linear regression analysis using the XMGRACE program (Linux software) and converted into the corresponding Ki-values by the equation Ki=IC50/(1+[S]/KM) assuming competitive inhibition by the isatin derivatives, where [S] is the concentration and KM is the Michaelis constant of substrate Ac-DEVD-AMC.

active caspase-3 = biological target: T2, active caspase-3 (Homo sapiens, UniProt P42574); test: Cellular caspase assay: growth factor withdrawal-induced apoptosis in HUVEC, Western blot; type: cell-based; details: 8 hours, at 10 μM (FIGS. 1 and 2)
T2 construct: endogenous in cells; host or cells: HUVEC
T2 sequence (P42574 29-175 limits assumed): T1 sequence (P42574 29-175 limits assumed)
T2 sequence (P42574 176-277 limits assumed): T1 sequence (P42574 176-277 limits assumed)
Method: In the context of cellular apoptosis assays concentration- and time-dependent kinetics of mentioned CbRs and CbR-transporter conjugates are performed to evaluate the pharmacological inhibition of apoptosis in viable apoptotic cells (e.g. growth factor withdrawal-induced, drug-induced, or ionizing radiation-induced apoptosis in endothelial cells).
HUVEC (Human umbilical vein endothelial cells) were cultivated on gelatine (2%)-coated dishes in RPMI-1640 containing 15% bovine calf serum, 1% Pen/Strep/Amph, 1% Heparin and 0.05 mg/ml bovine pituitary extract (BPE) at 37° C. in 5% CO2. Apoptosis was induced by growth factor withdrawal as previously described. For caspase inhibition experiments, cells were pre-incubated for 30 min with the compounds in the indicated concentrations. The medium was then removed and replaced with RPMI-1640 without serum or BPE, and the cells were incubated in the presence or absence of the various inhibitor concentrations for 8 hours. All cells were then harvested in lysis buffer, incubated for 10 min on ice, and cell debris was removed by centrifugation at 14000 rpm at 4° C. for 10 min. Protein concentration was determined by the Pierce protein assay, and 30 μg cell lysate were loaded on 15% SDS-Page gels and transferred to Immobilon PVDF membranes. Western blots were performed with antibodies to active caspase-3 (Cell Signaling) and developed using ECL (Amersham).
A quantitative (pharmacological) inhibition of before mentioned target caspases with the non-radioactive PET- or SPECT-compatible CbRs of presented invention needs macroscopic amounts of the inhibitor, i.e. concentrations of caspase inhibitor that are definitely more than necessarily needed for molecular imaging purposes.

[2] = Small-animal PET biodistribution after i.v. injection; type: in vivo, WT Mouse (Nu/Nu); details: mouse, 180 min p.i.
Method: PET was performed using a high-resolution dedicated small-animal PET system (32-module quadHIDAC; Oxford Positron Systems) which uses multiwire chamber detectors with submillimeter-resolution potency. For each data acquisition, up to two mice were placed on a heating pad to maintain a normal body temperature. The animals were anesthetised by inhalation of isoflurane (1.5%) and intravenously injected with approximately 7 MBq of each radiotracer in 100 μL isotonic as well as isohydric solution.
A small-animal PET scan was performed with the quadHIDAC device to trace the in vivo biodistribution behavior of the PET-compatible CbR (S)-1-(4-(2[<18>F]fluoroethoxy)benzyl)-5-[1-(2-methoxymethylpyrrolidinyl)-sulfonyl]isatin [<18>F]VI. Immediately after i.v. injection of [<18>F]VI (A=7MBq, pH=8, A5=48 GBq/[mu]mol, V=100 [mu]1 in sodium bicarbonate buffered saline solution) data acquisition was started. List-mode data were acquired for 180 min and subsequently reconstructed into an image volume of 90×90×120 mm<3>, voxel size 0.4×0.4×0.4 mm<3>, using an iterative reconstruction algorithm (OPL-EM). […] Mentioned hot spot remains even 6 h p.i. (data not shown).

SMILES	Ki [1] [nM]	melting point	also measured
COC[C@@H]1CCCN1S(=O)(=O)c1ccc2c(c1)C(=O)C(=O)N2Cc1ccc(I)cc1 [compound 2, (S)-1-(4-iodobenzyl)-5-[1-(2-methoxymethylpyrrolidinyl)sulfonyl]isatin]	11	129 to 130 °C	inhibition of caspase progression (Western blot, active caspase-3) (active caspase-3): recognizable
COC[C@@H]1CCCN1S(=O)(=O)c1ccc2c(c1)C(=O)C(=O)N2Cc1ccc(OC)cc1 [IV, (S)-1-(4-methoxybenzyl)-5-[1-(2-methoxymethylpyrrolidinyl)sulfonyl]isatin]	9	–	inhibition of caspase progression (Western blot, active caspase-3) (active caspase-3): recognizable
COC[C@@H]1CCCN1S(=O)(=O)c1ccc2c(c1)C(=O)C(=O)N2Cc1ccc(O)cc1 [IVa, (S)-1-(p-hydroxybenzyl)-5-[1-(2-methoxymethylpyrrolidinyl)sulfonyl]isatin]	45	–	–
Cc1ccc(S(=O)(=O)OCCOc2ccc(CN3C(=O)C(=O)c4cc(S(=O)(=O)N5CCC[C@H]5COc5ccccc5)ccc43)cc2)cc1 [Va, (S)-1-(4-(2-(p-methylphenylsulfonyloxy)ethoxy)benzyl)-5-[1-(2-phenoxymethylpyrrolidinyl)sulfonyl]isatin]	17	–	–
O=C1C(=O)N(Cc2ccc(OCCBr)cc2)c2ccc(S(=O)(=O)N3CCC[C@H]3COc3ccccc3)cc21 [Vaa, (S)-1-(4-(2-bromoethoxy)benzyl)-5-[1-(2-phenoxymethylpyrrolidinyl)sulfonyl]isatin]	25	162 to 163 °C	–
COC[C@@H]1CCCN1S(=O)(=O)c1ccc2c(c1)C(=O)C(=O)N2Cc1ccc(OCC[18F])cc1 [[^18F]VI, (S)-1-(4-(2-[^18F]Fluoroethoxy)benzyl)-5-[1-(2-methoxymethylpyrrolidinyl)-sulfonyl]isatin]	–	–	clearance of radioactivity from peripheral organs (PET) ([2]; 7 MBq, all peripheral organs (FIG. 3)): cleared; remaining radioactivity (PET) ([2]; hot spot (putatively gall bladder) remains even 6 h p.i.): only remains in the bowels and in a hot spot nearby the liver
CC(C)(C)[Si](C)(C)Oc1ccc(CN2C(=O)C(=O)c3cc(S(=O)(=O)N4CCC[C@H]4COc4ccccc4)ccc32)cc1 [IIIab, (S)-1-(p-tert-butyldimethylsilyloxybenzyl)-5-[1-(2-phenoxymethylpyrrolidinyl)sulfonyl]-isatin]	20	–	–
COC[C@@H]1CCCN1S(=O)(=O)c1ccc2c(c1)C(=O)C(=O)N2Cc1ccc(OCCF)cc1 [VI, (S)-1-(4-(2-fluoroethoxy)benzyl)-5-[1-(2-methoxymethylpyrrolidinyl)sulfonyl]isatin]	36	–	inhibition of caspase progression (Western blot, active caspase-3) (active caspase-3): recognizable
O=C1C(=O)N(Cc2ccc(OCc3ccccc3)cc2)c2ccc(S(=O)(=O)N3CCC[C@H]3COc3ccccc3)cc21 [IIIaa, (S)-(+)-1-(4-benzyloxybenzyl)-5-[1-(2-phenoxymethylpyrrolidinyl)-sulfonyl]isatin]	6.9	69 to 70 °C	–
O=C1C(=O)N(Cc2ccc(I)cc2)c2ccc(S(=O)(=O)N3CCC[C@H]3COc3ccccc3)cc21 [compound 1, (S)-1-(4-iodobenzyl)-5-[1-(2-phenoxymethylpyrrolidinyl)sulfonyl]isatin]	–	88 to 90 °C	–
COC[C@@H]1CCCN1S(=O)(=O)c1ccc2c(c1)C(=O)C(=O)N2 [IIa, (S)-5-(1-[2-(methoxymethyl)pyrrolidinyl]-sulfonyl)isatin, reference compound]	77	–	–
COC[C@@H]1CCCN1S(=O)(=O)c1ccc2c(c1)C(=O)C(=O)N2Cc1ccc(OCCBr)cc1 [VIaa, (S)-1-(4-(2-bromoethoxy)benzyl)-5-[1-(2-methoxymethylpyrrolidinyl)-sulfonyl]isatin]	13	61 to 62 °C	–

Now from value to molecule, other results behind:

Ki [1] [nM]	melting point	SMILES	also measured
3	–	O=C1C(=O)N(Cc2ccc(Br)cc2)c2ccc(S(=O)(=O)N3CCC[C@H]3COc3ccccc3)cc21 [1c, (S)-(+)-1-(4-bromobenzyl)-5-[1-(2-phenoxymethylpyrrolidinyl)sulfonyl]isatin]	–
2	61 to 62 °C	COC[C@@H]1CCCN1S(=O)(=O)c1ccc2c(c1)C(=O)C(=O)N2Cc1ccc(OCCOS(=O)(=O)c2ccc(C)cc2)cc1 [VIa, (S)-1-(4-(2-(p-methylphenylsulfonyloxy)ethoxy)benzyl)-5-[1-(2-methoxymethylpyrrolidinyl)sulfonyl]isatin]	–
4	–	COC[C@@H]1CCCN1S(=O)(=O)c1ccc2c(c1)C(=O)C(=O)N2Cc1ccc(O[Si](C)(C)C(C)(C)C)cc1 [IVab, (S)-1-(p-tert-butyldimethylsilyloxybenzyl)-5-[1-(2-methoxymethylpyrrolidinyl)sulfonyl]-isatin]	–
2	143 to 144 °C	COC[C@@H]1CCCN1S(=O)(=O)c1ccc2c(c1)C(=O)C(=O)N2C [II, (S)-5-[1-(2-methoxymethylpyrrolidinyl)sulfonyl]-1-methyl-isatin]	inhibition of caspase progression (Western blot, active caspase-3) (active caspase-3): recognizable
5	73 to 74 °C	COC[C@@H]1CCCN1S(=O)(=O)c1ccc2c(c1)C(=O)C(=O)N2Cc1ccc(OCc2ccccc2)cc1 [IVaa, (S)-(+)-1-(4-benzyloxybenzyl)-5-[1-(2-methoxymethylpyrrolidinyl)-sulfonyl]isatin]	–
0.4	–	O=C1C(=O)N(Cc2ccc(OCCF)cc2)c2ccc(S(=O)(=O)N3CCC[C@H]3COc3ccccc3)cc21 [V, (S)-1-(4-(2-fluoroethoxy)benzyl)-5-[1-(2-phenoxymethylpyrrolidinyl)sulfonyl]isatin]	–
0.7	128 to 130 °C (dec.)	C[Si](C)(C)c1ccc(CN2C(=O)C(=O)c3cc(S(=O)(=O)N4CCC[C@H]4COc4ccccc4)ccc32)cc1 [1b, (S)-5-[1-(2-phenoxymethylpyrrolidinyl)sulfonyl]-1-(4-trimethylsilylbenzyl)-isatin]	–
3	–	O=C1C(=O)N(Cc2ccc(O)cc2)c2ccc(S(=O)(=O)N3CCC[C@H]3COc3ccccc3)cc21 [IIIa, (S)-1-(p-hydroxybenzyl)-5-[1-(2-phenoxymethylpyrrolidinyl)sulfonyl]isatin]	–
